Experimental data taken from patent US9051295B2, “1-substituted indazole derivative” (Dainippon Sumitomo Pharma Co., Ltd., priority 2012, dated 2015).

Key:
human α7 nAChR = biological target: T1, human α7 nAChR (Homo sapiens, UniProt P36544); assay: Evaluation of PAM activity with human α7 nACh receptor stably expressing cells (aequorin luminescence, FDSS7000, ACh EC20); format: cell-based; details: test compound 10 μmol/L; ACh at EC20; ratio of RLU (Max-Min) of test-compound wells to control wells
T1 construct: expressed in transfected cells; host or cells: GH4C1 cells (rat pituitary, ATCC CCL-82.2)
Description: Evaluation of PAM Activity with Human α7 nACh Receptor Stably Expressing Cells
(1) Human α7 nAChR Stably Expressing Cells
Human α7 nAChR stably expressing cells were generated and cultured. In detail, GH4C1 cells derived from rat pituitary (cat#CCL-82.2, ATCC, USA) were used as a host cell. PcDNA3.1Zeo vector containing a nucleotide sequence encoding a protein GenBank BAC81731 and pcDNA3.1 vector containing human α7 nAChR gene (cat#V790-20, invitrogen, Carlsbad, Calif., USA) were transfected to the cells to give aequorins and human α7 nAChR stably expressing cells respectively. The aequorins and human α7 nAChR stably expressing cells were screened with Zeocin (cat#R25001, invitrogen, Carlsbad, Calif., USA) and Geneticin (cat#10131-027, invitrogen, Carlsbad, Calif., USA) respectively.
The cells were cultured in F-10 Nutrient Mixture (Ham) medium (cat#11550-043, invitrogen, Carlsbad, Calif., USA) containing 2.5% fetal bovine serum (cat#2917354, ICN Biomedicals, Inc, USA), 15% inactivated horse serum (cat#26050-088, invitrogen, Carlsbad, Calif., USA), 1 μg/mL Geneticin, and 5 μg/mL Puromycin (cat#14861-84, invitrogen, Carlsbad, Calif., USA), in a Collagen Type 1-coated dish (cat#4030-010, iwaki, Tokyo, Japan). During the culture, the medium was replaced with fresh medium in every 2 to 3 days, and the cells were treated with TrypLE Express (cat#45604-021, invitrogen, Carlsbad, Calif., USA) to collect them in every 7 days. Thus, the cells were subcultured.
7 Days after subculturing, the cells were treated with TrypLE Express to collect them when they were about 80% confluent. The cells were suspended in a reaction medium containing Hanks (cat#14065-056, invitrogen, Carlsbad, Calif., USA)/20 mmol/L Hepes (cat#15630-080, invitrogen, Carlsbad, Calif., USA), Buffer (pH 7.4), F-10 Nutrient Mixture (Ham), and 0.1 mg/mL Geneticin, and the suspension was seeded in a 384-well plate (cat#781090, Greiner, Germany) at 20000 cells/25 μL per well.
On the next day after seeding, Viviren (cat#E649X, Promega, Madison, Wis., USA) was added to the medium so that the final concentration could be 4 μmol/L (15 μL/well). The plates were centrifuged and then placed in the dark for 4 hours at room temperature.
(2) Preparation of the Test Samples
Each of the test compounds was dissolved in DMSO to prepare each test sample at a concentration of 1000-fold the final concentration. To the solution was added Hanks/20 mM HEPES/0.2% BSA (cat#A3803, Sigma, St. Louis, Mo., USA), and the concentration was adjusted to 6-fold the final concentration.
(3) Evaluation of PAM Activity
FDSS7000 (Hamamatsu Photonics) was used to detect the luminescence signal evoked by α7 nAChR stimulation. The cells and a luminescent substrate were put on a plate, and the test sample was added thereto. […] After the addition of ACh, the luminescence signal (the central wavelength: 465 nm) was measured for 138 seconds to calculate RLU (Max-Min). The ratio of the RLU (Max-Min) of the test-compound-containing wells to that of the control wells was defined as PAM activity.

Slc: ddY mice = assay: Novel object recognition test in mice (mORT); format: in vivo; details: at 0.3 mg/kg, 1.0 mg/kg or 3 mg/kg
Procedure: Evaluation of Cognitive Function with Mice in Novel Object Recognition Test (Hereinafter, Referred to as “mORT”)
Slc: ddY mice (25 g to 30 g, male, Japan SLC) can be used in the novel object recognition test wherein the interval between the 1st trial (training) and the 2nd trial (test) correlates with the memory loss for the objects used in the 1st trial, and a significant memory-loss is observed when the 2nd trial is performed 24 hours after the 1st trial. According to the test mechanism, the present compounds were administered prior to the 1st trial, and the enhancement effect on memory in the 2nd trial was evaluated.

T1 sequence (P36544 23-502): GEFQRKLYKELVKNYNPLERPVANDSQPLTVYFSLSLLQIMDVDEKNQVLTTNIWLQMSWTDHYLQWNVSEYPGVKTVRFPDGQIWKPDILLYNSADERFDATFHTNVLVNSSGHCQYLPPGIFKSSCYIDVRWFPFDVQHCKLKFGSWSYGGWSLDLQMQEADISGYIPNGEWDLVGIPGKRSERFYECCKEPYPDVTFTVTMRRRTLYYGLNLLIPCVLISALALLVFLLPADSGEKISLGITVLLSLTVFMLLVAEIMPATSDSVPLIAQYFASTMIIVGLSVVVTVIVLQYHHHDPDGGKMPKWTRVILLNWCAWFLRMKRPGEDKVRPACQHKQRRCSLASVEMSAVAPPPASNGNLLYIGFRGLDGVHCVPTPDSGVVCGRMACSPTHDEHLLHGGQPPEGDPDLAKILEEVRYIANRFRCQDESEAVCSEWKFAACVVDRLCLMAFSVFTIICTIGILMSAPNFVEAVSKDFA

SMILES | α7PAM (%) @ 10 μmol/L (human α7 nAChR) [%] | efficacy at higher doses (Slc: ddY mice)
CO[C@H]1CC[C@H](NC(=O)N2CCC(n3ncc4cc(C5CC5)ccc43)CC2)CC1 [Example 74, 4-(5-cyclopropyl-1H-indazol-1-yl)-N-(trans-4-methoxycyclohexyl)piperidine-1-carboxamide] | 1226 | the efficacy did not decrease
CO[C@H]1CC[C@H](NC(=O)N2CCC(n3ncc4cc(C)ccc43)CC2)CC1 [Example 1, N-(trans-4-methoxycyclohexyl)-4-(5-methyl-1H-indazol-1-yl)piperidine-1-carboxamide] | 1209 | the efficacy did not decrease
CCOc1ccc2c(cnn2C2CCN(C(=O)NC3CCC(F)(F)CC3)CC2)c1 [Example 27, N-(4,4-difluorocyclohexyl)-4-(5-ethoxy-1H-indazol-1-yl)piperidine-1-carboxamide] | 1673 | 
CCc1ccc2c(cnn2C2CCN(C(=O)N[C@H]3CC[C@H](OC)CC3)CC2)c1 [Example 16, 4-(5-ethyl-1H-indazol-1-yl)-N-(trans-4-methoxycyclohexyl)piperidine-1-carboxamide] | 1764 | 
COC1CCC(NC(=O)N2CCC(n3ncc4c(Br)cccc43)CC2)CC1 (stereo not drawn) [Example 98] | 89 | 
O=C(Nc1ccc(C(F)(F)F)nc1)N1CCC(n2ncc3cc(C4CC4)ccc32)CC1 [Example 187] | 220 | 
CCc1cccc2c1cnn2C1CCN(C(=O)NC2CCC(F)(F)CC2)CC1 [Example 64, N-(4,4-difluorocyclohexyl)-4-(4-ethyl-1H-indazol-1-yl)piperidine-1-carboxamide] | 1133 | 
CCc1ccc2c(cnn2C2CCN(C(=O)NC3CCOCC3)CC2)c1OC [Example 275, 4-(5-ethyl-4-methoxy-1H-indazol-1-yl)-N-(tetrahydro-2H-pyran-4-yl)piperidine-1-carboxamide] | 1093 | 
CCO[C@H]1CC[C@H](NC(=O)N2CCC(n3ncc4cc(C)ccc43)CC2)CC1 [Example 90, N-(trans-4-ethoxycyclohexyl)-4-(5-methyl-1H-indazol-1-yl)piperidine-1-carboxamide] | 1467 | 
CCCc1ccc2c(cnn2C2CCN(C(=O)NC3CCC(OC)CC3)CC2)c1 (stereo not drawn) [Example 76] | 420 | 
